Test results from the supplement of paper PMC7224384.

Key:
MDA-MB-453 [1] = assay: drug sensitivity score (DSS), single agent (DSS (weighted AUC score)); higher = more sensitive (stronger viability decrease); extreme values may be limits of the assay; conditions: BLU9931 0 nM; 72 h
Summary of the method: (§1)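 Cells of the MDA-MB-453 line (2000 per well) were added in medium, with or without 100 nM final FGFR4 inhibitor, to 384-well plates predispensed with FIMM Oncology set compounds at five 10-fold dilutions covering a 10,000-fold range. After 72 h at 37 °C, 5% CO2, CellTiterGlo 2.0 read cellular ATP. Percent viability came from per-plate normalisation to control wells, and the drug sensitivity score was defined as a weighted area under a four-parameter logistic fit.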

MDA-MB-453 [2] = assay: drug sensitivity score (DSS), in combination with BLU9931 (DSS (weighted AUC score)); higher = more sensitive (stronger viability decrease); extreme values may be limits of the assay; conditions: BLU9931 100 nM; 72 h
Summary of the method: as §1

Compound	drug sensitivity score (MDA-MB-453 [1])	drug sensitivity score (MDA-MB-453 [2])
COCC1(CO)C(=O)C2CCN1CC2 (configuration not stated) [APR-246]	0	0.4
CNC(=O)c1ccc(N2C(=S)N(c3ccc(C#N)c(C(F)(F)F)c3)C(=O)C2(C)C)cc1F [Enzalutamide]	1.3	0
COc1cccc2c1C(=O)c1c(O)c3c(c(O)c1C2=O)C[C@@](O)(C(C)=O)C[C@@H]3O[C@H]1C[C@H](N)[C@H](O)[C@H](C)O1 [Daunorubicin]	7.4	5.4
CCS(=O)(=O)N1CC(CC#N)(n2cc(-c3ncnc4[nH]ccc34)cn2)C1 [Baricitinib]	0	0
COc1cc([C@@H]2c3cc4c(cc3[C@@H](O[C@@H]3O[C@@H]5CO[C@@H](C)O[C@H]5[C@H](O)[C@H]3O)[C@H]3COC(=O)[C@H]23)OCO4)cc(OC)c1O [Etoposide]	2.8	2.9
CC(C)[C@H]1C(=O)N[C@@H](CCCNC(=N)N)C(=O)NCC(=O)N[C@@H](CC(=O)O)C(=O)N[C@H](Cc2ccccc2)C(=O)N1C [Cilengitide]	0	0
CS(=O)(=O)N1CCN(Cc2cc3nc(-c4cccc5[nH]ncc45)nc(N4CCOCC4)c3s2)CC1 [Pictilisib]	16.6	17.4
NC1(c2ccc(-c3nc4ccn5c(=O)[nH]nc5c4cc3-c3ccccc3)cc2)CCC1 [MK-2206]	8.3	8.9
CNC(=O)c1ccccc1Sc1ccc2c(/C=C/c3ccccn3)n[nH]c2c1 [Axitinib]	2.2	0.3
COc1ncc(-c2ccc3nccc(-c4ccnnc4)c3c2)cc1NS(=O)(=O)c1ccc(F)cc1F [Omipalisib]	23	25.1
CC(C)C[C@H](NC(=O)[C@H](CCc1ccccc1)NC(=O)CN1CCOCC1)C(=O)N[C@@H](Cc1ccccc1)C(=O)N[C@@H](CC(C)C)C(=O)[C@@]1(C)CO1 [Carfilzomib]	24.5	22.9
O=C(Nc1cnn2ccc(N3CCC[C@@H]3c3cc(F)ccc3F)nc12)N1CC[C@H](O)C1 [Larotrectinib]	0.4	0
O=C(Nc1c[nH]nc1-c1nc2ccc(CN3CCOCC3)cc2[nH]1)NC1CC1 [AT9283]	2.3	2.3
CC(=O)[C@]1(O)Cc2c(O)c3c(c(O)c2[C@@H](O[C@H]2C[C@H](N)[C@H](O)[C@H](C)O2)C1)C(=O)c1ccccc1C3=O [Idarubicin]	5.9	6.4
CN1CCc2c(c3ccccc3n2Cc2ccc(C(=O)NO)cc2)C1 [Tubastatin A]	4.1	2.1
C[C@H]1CNCCCN1S(=O)(=O)c1cccc2cncc(F)c12 [Ripasudil]	0	0.1
CC1(C)C(C(=O)Nc2ccc(S(=O)(=O)c3ccc(NC(=O)C4C(C)(C)C4(C)C)cc3)cc2)C1(C)C [BRD7116]	4.5	3.9
COC(=O)c1ccc([C@H]2c3[nH]c4ccccc4c3C[C@H](C(=O)OC)N2C(=O)CCl)cc1 [RSL3]	0.6	0.8
Nc1cc(COc2c(Cl)cc(C[C@H](N)C(=O)O)cc2Cl)c2oc(-c3ccccc3)nc2c1 [JPH203]	3	1.4
Nc1nc2[nH]cnc2c(=S)[nH]1 [Thioguanine]	10.4	5.9
O[C@H]1CC[C@H](Nc2ncc3nc(Nc4c(F)cc(F)cc4F)n([C@H]4CCOC4)c3n2)CC1 [Tanzisertib]	0	0

Compound	drug sensitivity score (MDA-MB-453 [1])	drug sensitivity score (MDA-MB-453 [2])
Cc1ccc(C(=O)N(CCCN)[C@@H](c2oc3cc(Cl)ccc3c(=O)c2Cc2ccccc2)C(C)C)cc1	5.3	1.8
Cc1c2oc3c(C)ccc(C(=O)N[C@@H]4C(=O)N[C@H](C(C)C)C(=O)N5CCC[C@H]5C(=O)N(C)CC(=O)N(C)[C@@H](C(C)C)C(=O)O[C@@H]4C)c3nc-2c(C(=O)N[C@@H]2C(=O)N[C@H](C(C)C)C(=O)N3CCC[C@H]3C(=O)N(C)CC(=O)N(C)[C@@H](C(C)C)C(=O)O[C@@H]2C)c(N)c1=O [Dactinomycin]	21	22
C[C@]12C=CC(=O)C=C1CC[C@@H]1[C@@H]2[C@@H](O)C[C@@]2(C)[C@H]1CC[C@]2(O)C(=O)CO [Prednisolone]	8.2	0
Cc1nc(=O)c2cc(CN(C)c3ccc(C(=O)N[C@@H](CCC(=O)O)C(=O)O)s3)ccc2[nH]1 [Raltitrexed]	5.3	3.2
CC(C)N(CCCNC(=O)Nc1ccc(C(C)(C)C)cc1)C[C@H]1O[C@@H](n2cc(Br)c3c(N)ncnc32)[C@H](O)[C@@H]1O [SGC0946]	0.9	0.1
FC(F)(F)c1ccc(CNc2ccc(Cc3c[nH]c4ncc(Cl)cc34)cn2)cn1 [Pexidartinib]	1.2	0.1
c1cn2cc(-c3ccc4cn[nH]c4c3)nc(Nc3ccc(N4CCOCC4)cc3)c2n1 [Entospletinib]	0	0
CCCS(=O)(=O)Nc1ccc(F)c(C(=O)c2c[nH]c3ncc(-c4ccc(Cl)cc4)cc23)c1F [Vemurafenib]	0	0
C=CC(=O)Nc1cccc(Nc2nc(Nc3ccc(OCCOC)cc3)ncc2F)c1 [Spebrutinib]	0.7	0.9
CC#CC(=O)N1CC[C@@H](n2c(=O)n(-c3ccc(Oc4ccccc4)cc3)c3c(N)ncnc32)C1 [Tirabrutinib]	5.7	6.3
COc1ccc(Cn2ccc3ccc(C(=O)NO)cc32)cc1	0.8	2.3
CN(C)C(=O)c1cc2cnc(Nc3ccc(N4CCNCC4)cn3)nc2n1C1CCCC1 [Ribociclib]	1.4	3.6
C[C@@H]1CN(Cc2ccc(F)cc2)[C@@H](C)CN1C(=O)c1cc2c(C(=O)C(=O)N(C)C)cn(C)c2cc1Cl [Talmapimod]	0	0
FC(F)(F)c1ccc(/C=C/c2nc(COc3ccc(CCCCn4ccnn4)cc3)co2)cc1 [Mubritinib]	7.8	4
O=C(CCCCCCC(=O)Nc1ccccc1)NO [Vorinostat]	16.4	15.6
NS(=O)(=O)NCCNc1nonc1/C(=N/O)Nc1ccc(F)c(Br)c1 [Epacadostat]	0	0
COc1c(OCCCN2CCOCC2)ccc2c1N=C(NC(=O)c1cnc(N)nc1)N1CCN=C21 [Copanlisib]	22.4	23.4
CCNCCS(=O)(=O)NC[C@@]1(c2ccccc2)SC(NC(=O)C(C)(C)C)=NN1C(=O)C(C)(C)C [Litronesib]	17.3	13
CCN(CC)CCCC(C)Nc1ccnc2cc(Cl)ccc12 (configuration not stated) [Chloroquine]	7.6	7
C[C@@H](Oc1cc(-n2cnc3ccc(CN4CCN(C)CC4)cc32)sc1C(N)=O)c1ccccc1C(F)(F)F	11.5	6.3
